In US9783532B2, “Molecules having certain pesticidal utilities, and intermediates, compositions, and processes related thereto” (Dow AgroSciences LLC, priority 2013, dated 2017):
Read-outs that look alike come from different tables or passages of the source.

Experiments:
Type in all cases: in vivo
[1] = system: Cabbage Looper (Trichoplusia ni) ("CL"); assay: Bioassay on cabbage looper (CL), 128-well diet tray assay; conditions: for pest or weed control at 50 µg/cm2: activity rating class, read-out: CL (Biological Results, Insect species)
Method in brief: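 Second-instar larvae (one to five per well) placed on artificial diet surface-treated with 50 μg/cm^2 compound in 90:10 acetone-water, dried before infestation. Held 25 °C, 14:10 light-dark for five to seven days; percent mortality scored per well and averaged over eight wells.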

[2] = system: Beet Armyworm (Spodoptera exigua) ("BAW"); assay: Bioassay on beet armyworm (BAW), 128-well diet tray assay; conditions: for mortality at 50 µg/cm2: 168 h, 50 μg/cm^2 on artificial diet, second instar BAW larvae, 25° C., five to seven days, average of eight wells, read-out: BAW % Control (or Mortality) rating; for pest or weed control at 50 µg/cm2: Table ABC (FB), activity rating class, read-out: BAW (Biological Results, Insect species)
Method in brief: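 Second-instar larvae (one to five per well) were placed on artificial diet surface-treated with 50 μg/cm^2 compound applied in 90:10 acetone-water and dried, eight wells per compound. Held at 25° C., 14:10 light-dark for five to seven days; percent mortality was scored per well and averaged over the eight wells.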

[3] = system: Yellow Fever Mosquito "YFM" (Aedes aegypti); conditions: for YFM % Control (or Mortality) rating: about 1 day-old larvae, 96-well plate, room temperature, 3 days; for YFM (Biological Results, Insect species): activity rating class
Method: Certain molecules disclosed in this document were tested against YFM using procedures described in the following paragraph. In the reporting of the results, the “YFM Rating Table” was used (See Table Section).
Master plates containing 400 μg of a molecule dissolved in 100 μL of dimethyl sulfoxide (DMSO) (equivalent to a 4000 ppm solution) are used. A master plate of assembled molecules contains 15 μL per well. To this plate, 135 μL of a 90:10 wateracetone mixture is added to each well. A robot (Biomek® NXP Laboratory Automation Workstation) is programmed to dispense 15 μL aspirations from the master plate into an empty 96-well shallow plate (“daughter” plate). There are 6 reps (“daughter” plates) created per master. The created daughter plates are then immediately infested with YFM larvae.
The day before plates are to be treated, mosquito eggs are placed in Millipore water containing liver powder to begin hatching (4 g. into 400 mL). After the daughter plates are created using the robot, they are infested with 220 μL of the liver powder/larval mosquito mixture (about 1 day-old larvae). After plates are infested with mosquito larvae, a non-evaporative lid is used to cover the plate to reduce drying. Plates are held at room temperature for 3 days prior to grading. After 3 days, each well is observed and scored based on mortality.

Compound: Cc1ccc(C(C)C)c(N2C(=O)CS/C2=N\C(=O)NCCCc2ccc(-c3ncn(-c4ccc(OC(F)(F)F)cc4)n3)cc2)c1 [F20, (Z)-1-(3-(2-isopropyl-5-methylphenyl)-4-oxothiazolidin-2-ylidene)-3-(3-(4-(1-(4-(trifluoromethoxy)phenyl)-1H-1,2,4-triazol-3-yl)phenyl)propyl)urea]
- mortality at 50 µg/cm2 ([1]; 168 h, 50 μg/cm^2 on artificial diet, second instar CL larvae, 25° C., five to seven days, average of eight wells, read-out: CL % Control (or Mortality) rating): 50 to 100%
- mortality at 50 µg/cm2 [2]: 50 to 100%
- YFM % Control (or Mortality) rating [3]: A (80-100)

Compound: Cc1ccc(N2C(=O)CS/C2=N\C(=O)NCCCCc2ccc(-c3ncn(-c4ccc(OC(F)(F)F)cc4)n3)cc2)c(C)c1 [FB17, (Z)-1-(3-(2,4-dimethylphenyl)-4-oxothiazolidin-2-ylidene)-3-(4-(4-(1-(4-(trifluoromethoxy)phenyl)-1H-1,2,4-triazol-3-yl)phenyl)butyl)urea]
- pest or weed control at 50 µg/cm2 ([1]; Table ABC (FB)): 50 to 100%
- pest or weed control at 50 µg/cm2 [2]: 50 to 100%
- YFM (Biological Results, Insect species) ([3]; Table ABC (FB)): A (80-100)

Compound: CC(C)c1ccc(Cl)cc1N1C(=O)CS/C1=N\C(=O)NCCc1ccc(-c2ncn(-c3ccc(OC(F)(F)F)cc3)n2)cc1 [FB40, (Z)-1-(3-(5-chloro-2-isopropylphenyl)-4-oxothiazolidin-2-ylidene)-3-(4-(1-(4-(trifluoromethoxy)phenyl)-1H-1,2,4-triazol-3-yl)phenethyl)urea]
- pest or weed control at 50 µg/cm2 ([1]; Table ABC (FB)): 50 to 100%
- pest or weed control at 50 µg/cm2 [2]: 50 to 100%
- YFM (Biological Results, Insect species) ([3]; Table ABC (FB)): A (80-100)

Compound: Cc1ccc(C(C)C)c(N2C(=O)CCS/C2=N\C(=O)NCCc2ccc(-c3ncn(-c4ccc(OC(F)(F)F)cc4)n3)cc2)c1 [FB41]
- pest or weed control at 50 µg/cm2 ([1]; Table ABC (FB)): 50 to 100%
- pest or weed control at 50 µg/cm2 [2]: 50 to 100%
- YFM (Biological Results, Insect species) ([3]; Table ABC (FB)): A (80-100)

Compound: CC(Cc1ccc(-c2ncn(-c3ccc(OC(F)(F)F)cc3)n2)cc1)NC(=O)/N=C1\SCC(=O)N1c1cc(Cl)ccc1C(C)C (stereo not shown) [FB42]
- pest or weed control at 50 µg/cm2 ([1]; Table ABC (FB)): 50 to 100%
- pest or weed control at 50 µg/cm2 [2]: 50 to 100%
- YFM (Biological Results, Insect species) ([3]; Table ABC (FB)): A (80-100)

Compound: Cc1ccc(N2C(=O)CS/C2=N\C(=O)NC(C)Cc2ccc(-c3ncn(-c4ccc(OC(F)(F)F)cc4)n3)cc2)c(C(C)C)c1 (stereo not shown) [FB48, (Z)-1-(3-(2-isopropyl-4-methylphenyl)-4-oxothiazolidin-2-ylidene)-3-(1-(4-(1-(4-(trifluoromethoxy)phenyl)-1H-1,2,4-triazol-3-yl)phenyl)propan-2-yl)urea]
- pest or weed control at 50 µg/cm2 ([1]; Table ABC (FB)): 50 to 100%
- pest or weed control at 50 µg/cm2 [2]: 50 to 100%
- YFM (Biological Results, Insect species) ([3]; Table ABC (FB)): A (80-100)

Compound: CC(C)c1ccc(Cl)cc1N1C(=O)CS/C1=N\C(=O)NCC(C)c1ccc(-c2ncn(-c3ccc(OC(F)(F)F)cc3)n2)cc1 (stereo not shown) [FB49, (Z)-1-(3-(5-chloro-2-isopropylphenyl)-4-oxothiazolidin-2-ylidene)-3-(2-(4-(1-(4-(trifluoromethoxy)phenyl)-1H-1,2,4-triazol-2,4-triazol-3-yl)phenyl)propyl)urea]
- pest or weed control at 50 µg/cm2 ([1]; Table ABC (FB)): 50 to 100%
- pest or weed control at 50 µg/cm2 [2]: 50 to 100%
- YFM (Biological Results, Insect species) ([3]; Table ABC (FB)): A (80-100)

Compound: Cc1ccc(C(C)C)c(N2C(=O)CS/C2=N\C(=O)N(C)CCc2ccc(-c3ncn(-c4ccc(OC(F)(F)F)cc4)n3)cc2)c1 [FB51]
- pest or weed control at 50 µg/cm2 ([1]; Table ABC (FB)): 50 to 100%
- pest or weed control at 50 µg/cm2 [2]: 50 to 100%
- YFM (Biological Results, Insect species) ([3]; Table ABC (FB)): A (80-100)

Compound: Cc1ccc(C(C)C)c(N2C(=O)CS/C2=N\C(=O)NCC(C)(C)c2ccc(-c3ncn(-c4ccc(OC(F)(F)F)cc4)n3)cc2)c1 [FB53, (Z)-1-(3-(2-isopropyl-5-methylphenyl)-4-oxothiazolidin-2-ylidene)-3-(2-methyl-2-(4-(1-(4-(trifluoromethoxy)phenyl)-1H-1,2,4-triazol-3-yl)phenyl)propyl)urea]
- pest or weed control at 50 µg/cm2 ([1]; Table ABC (FB)): 50 to 100%
- pest or weed control at 50 µg/cm2 [2]: 50 to 100%
- YFM (Biological Results, Insect species) ([3]; Table ABC (FB)): B (More than 0-Less than 80)

Compound: CCN(CCc1ccc(-c2ncn(-c3ccc(OC(F)(F)F)cc3)n2)cc1)C(=O)/N=C1\SCC(=O)N1c1cc(C)ccc1C(C)C [FB54, (Z)-1-ethyl-3-(3-(2-isopropyl-5-methylphenyl)-4-oxothiazolidin-2-ylidene)-1-(4-(1-(4-(trifluoromethoxy)phenyl)-1H-1,2,4-triazol-3-yl)phenethyl)urea]
- pest or weed control at 50 µg/cm2 ([1]; Table ABC (FB)): 50 to 100%
- pest or weed control at 50 µg/cm2 [2]: 50 to 100%
- YFM (Biological Results, Insect species) ([3]; Table ABC (FB)): A (80-100)

Compound: CCc1cc(C)ccc1N1/C(=N/C(=O)NCCc2ccc(-c3ncn(-c4ccc(OC(F)(F)F)cc4)n3)cc2)SCC1C (stereo not shown) [FB56, (Z)-1-(3-(2-ethyl-4-methylphenyl)-4-methylthiazolidin-2-ylidene)-3-(4-(1-(4-(trifluoromethoxy)phenyl)-1H-1,2,4-triazol-3-yl)phenethyl)urea]
- pest or weed control at 50 µg/cm2 ([1]; Table ABC (FB)): 50 to 100%
- pest or weed control at 50 µg/cm2 [2]: 50 to 100%
- YFM (Biological Results, Insect species) ([3]; Table ABC (FB)): A (80-100)

Compound: CC(C)c1cc(F)ccc1N1/C(=N/C(=O)NCCc2ccc(-c3ncn(-c4ccc(OC(F)(F)F)cc4)n3)cc2)SCC1C (stereo not shown) [FB57]
- pest or weed control at 50 µg/cm2 ([1]; Table ABC (FB)): 50 to 100%
- pest or weed control at 50 µg/cm2 [2]: 50 to 100%
- YFM (Biological Results, Insect species) ([3]; Table ABC (FB)): A (80-100)

Compound: COc1ccc(N2/C(=N/C(=O)NCCc3ccc(-c4ncn(-c5ccc(OC(F)(F)F)cc5)n4)cc3)SCC2C)c(C)c1 (stereo not shown) [FB58, (Z)-1-(3-(4-methoxy-2-methylphenyl)-4-methylthiazolidin-2-ylidene)-3-(4-(1-(4-(trifluoromethoxy)phenyl)-1H-1,2,4-triazol-3-yl)phenethyl)urea]
- pest or weed control at 50 µg/cm2 ([1]; Table ABC (FB)): 50 to 100%
- pest or weed control at 50 µg/cm2 [2]: 50 to 100%
- YFM (Biological Results, Insect species) ([3]; Table ABC (FB)): A (80-100)

Compound: Cc1cccc(C)c1N1/C(=N/C(=O)NCCc2ccc(-c3ncn(-c4ccc(OC(F)(F)F)cc4)n3)cc2)SCC1C (stereo not shown) [FB59, (Z)-1-(3-(2,6-dimethylphenyl)-4-methylthiazolidin-2-ylidene)-3-(4-(1-(4-(trifluoromethoxy)phenyl)-1H-1,2,4-triazol-3-yl)phenethyl)urea]
- pest or weed control at 50 µg/cm2 ([1]; Table ABC (FB)): 50 to 100%
- pest or weed control at 50 µg/cm2 [2]: 50 to 100%
- YFM (Biological Results, Insect species) ([3]; Table ABC (FB)): A (80-100)

Compound: Cc1ccc(N2/C(=N/C(=O)NCCc3ccc(-c4ncn(-c5ccc(OC(F)(F)F)cc5)n4)cc3)SCC2C)c(C(C)C)c1 (stereo not shown) [FB60, (Z)-1-(3-(2-isopropyl-4-methylphenyl)-4-methylthiazolidin-2-ylidene)-3-(4-(1-(4-(trifluoromethoxy)phenyl)-1H-1,2,4-triazol-3-yl)phenethyl)urea]
- pest or weed control at 50 µg/cm2 ([1]; Table ABC (FB)): 50 to 100%
- pest or weed control at 50 µg/cm2 [2]: 50 to 100%
- YFM (Biological Results, Insect species) ([3]; Table ABC (FB)): A (80-100)

Compound: C=CCN(CCc1ccc(-c2ncn(-c3ccc(OC(F)(F)F)cc3)n2)cc1)C(=O)/N=C1\SCC(=O)N1c1cc(C)ccc1C(C)C [FB61]
- pest or weed control at 50 µg/cm2 ([1]; Table ABC (FB)): 50 to 100%
- pest or weed control at 50 µg/cm2 [2]: 50 to 100%
- YFM (Biological Results, Insect species) ([3]; Table ABC (FB)): A (80-100)

Compound: Cc1ccc(C(C)C)c(N2C(=O)CS/C2=N\C(=O)N(CCc2ccc(-c3ncn(-c4ccc(OC(F)(F)F)cc4)n3)cc2)CC2CC2)c1 [FB62, (Z)-1-(cyclopropylmethyl)-3-(3-(2-isopropyl-5-methylphenyl)-4-oxothiazolidin-2-ylidene)-1-(4-(1-(4-(trifluoromethoxy)phenyl)-1H-1,2,4-triazol-3-yl)phenethyl)urea]
- pest or weed control at 50 µg/cm2 ([1]; Table ABC (FB)): 50 to 100%
- pest or weed control at 50 µg/cm2 [2]: 50 to 100%
- YFM (Biological Results, Insect species) ([3]; Table ABC (FB)): A (80-100)

Compound: Cc1ccc(C(C)C)c(N2C(=O)CS/C2=N\C(=O)NC2(Cc3ccc(-c4ncn(-c5ccc(OC(F)(F)F)cc5)n4)cc3)CC2)c1 [FB63, (Z)-1-(3-(2-isopropyl-5-methylphenyl)-4-oxothiazolidin-2-ylidene)-3-(1-(4-(1-(4-(trifluoromethoxy)phenyl)-1H-1,2,4-triazol-3-yl)benzyl)cyclopropyl)urea]
- pest or weed control at 50 µg/cm2 ([1]; Table ABC (FB)): 50 to 100%
- pest or weed control at 50 µg/cm2 [2]: 50 to 100%
- YFM (Biological Results, Insect species) ([3]; Table ABC (FB)): A (80-100)

Compound: CCC(CNC(=O)/N=C1\SCC(=O)N1c1ccc(F)cc1C(C)C)c1ccc(-c2ncn(-c3ccc(OC(F)(F)F)cc3)n2)cc1 (stereo not shown) [P1163]
- mortality at 50 µg/cm2 [2]: 50 to 100%
- YFM % Control (or Mortality) rating [3]: D (No activity noticed in this bioassay)

Compound: CCc1cccc(C)c1NC(=S)NC(=O)NCCCCc1ccc(-c2ncn(-c3ccc(OC(F)(F)F)cc3)n2)cc1 [PC153, 1-[(2-ethyl-6-methyl-phenyl)carbamothioyl]-3-[4-[4-[1-[4-(trifluoromethoxy)phenyl]-1H-1,2,4-triazol-3-yl]phenyl]butyl]urea]
- pest or weed control at 50 µg/cm2 ([1]; Table ABC (PC)): 50 to 100%
- YFM (Biological Results, Insect species) ([3]; Table ABC (PC)): B (More than 0-Less than 80)
